Reference: BindingDB's records for doi:10.1016/j.bmc.2010.11.049 (Bryn Mawr College, 2011)

Test: Inhibition of HIV1 YU2 gp120 binding to CD4 expressing Cf2Th-CD4/CCR5 cells assessed as inhibition of viral infection after 48 hrs
With `Cn1ccnc1C(O)(CCNC(=O)C(=O)Nc1ccc(Cl)c(F)c1)C(F)(F)F` (centres undefined) [N1-(4-chloro-3-fluorophenyl)-N2-(4,4,4-trifluoro-3-hydroxy-3-(1-methyl-1H-imidazol-2-yl)butyl)oxalamide] the IC50 was greater than 100 µM.
`Cc1n[nH]c(C)c1CNC(=O)C(=O)Nc1ccc(Cl)c(F)c1` [N1-(4-chloro-3-fluorophenyl)-N2-((3,5-dimethyl-1H-pyrazol-4-yl)methyl)oxalamide] gave an IC50 of 64.5 µM.
With `Cc1cc(Cl)ccc1NC(=O)C(=O)NC1CC(C)(C)NC(C)(C)C1` [N1-(4-chloro-2-methylphenyl)-N2-(2,2,6,6-tetramethylpiperidin-4-yl)oxalamide] the IC50 was greater than 100 µM.
`O=C(COc1ccc(Cl)cc1)Nc1ccc2[nH]c(=O)[nH]c2c1` [2-(4-chlorophenoxy)-N-(2-oxo-2,3-dihydro-1H-benzo[d]imidazol-5-yl)acetamide] showed an IC50 greater than 100 µM.
In the case of `CC1(C)CC(NC(=O)C(=O)Nc2ccc(Cl)cc2C(F)(F)F)CC(C)(C)N1` [N1-(4-chloro-2-(trifluoromethyl)phenyl)-N2-(2,2,6,6-tetramethylpiperidin-4-yl)oxalamide], the IC50 is reported as greater than 100 µM.
For `CC1(C)CC(NC(=O)C(=O)Nc2ccc(Cl)cc2F)CC(C)(C)N1` [N1-(4-chloro-2-fluorophenyl)-N2-(2,2,6,6-tetramethylpiperidin-4-yl)oxalamide], the IC50 was greater than 100 µM.
`CCOc1cc(Cl)ccc1NC(=O)C(=O)NC1CC(C)(C)NC(C)(C)C1` [N1-(4-chloro-2-ethoxyphenyl)-N2-(2,2,6,6-tetramethylpiperidin-4-yl)oxalamide] showed an IC50 greater than 100 µM.
`O=C(NCC1COc2ccccc2O1)C(=O)Nc1ccc(Br)cc1` (centres undefined) [N1-(4-bromophenyl)-N2-((2,3-dihydrobenzo[b][1,4]dioxin-2-yl)methyl)oxalamide] gave an IC50 greater than 100 µM.
For `CNS(=O)(=O)Cc1ccc(CNC(=O)C(=O)Nc2ccc(Cl)c(F)c2)cc1` [N1-(4-chloro-3-fluorophenyl)-N2-(4-(N-methylsulfamoylmethyl)benzyl)oxalamide], the IC50 was greater than 100 µM.
For `O=C(NCc1ccco1)C(=O)Nc1ccc(Br)cc1` [N1-(4-bromophenyl)-N2-(furan-2-ylmethyl)oxalamide], the IC50 was greater than 100 µM.
Work on `COc1cc(Cl)ccc1NC(=O)C(=O)NC1CC(C)(C)NC(C)(C)C1` [N1-(4-chloro-2-methoxyphenyl)-N2-(2,2,6,6-tetramethylpiperidin-4-yl)oxalamide] yielded an IC50 greater than 100 µM.
In the case of `O=C(Nc1ccc(Cl)c(F)c1)C(=O)Nc1cnn2c1NCCC2` [N1-(4-chloro-3-fluorophenyl)-N2-(4,5,6,7-tetrahydropyrazolo[1,5-a]pyrimidin-3-yl)oxalamide], the IC50 is reported as greater than 100 µM.
`CCN(CC)C(CNC(=O)C(=O)Nc1ccc(Cl)c(F)c1)CC(C)C` (centres undefined) [N1-(4-chloro-3-fluorophenyl)-N2-(2-(diethylamino)-4-methylpentyl)oxalamide] showed an IC50 greater than 100 µM.
In the case of `CC1(C)Cc2c(sc(NC(=O)C(=O)Nc3ccc(Cl)c(F)c3)c2C#N)C(C)(C)N1` [N1-(4-chloro-3-fluorophenyl)-N2-(3-cyano-5,5,7,7-tetramethyl-4,5,6,7-tetrahydrothieno[2,3-c]pyridin-2-yl)oxalamide], the IC50 is reported as greater than 100 µM.
`CCN1CCCC1CNC(=O)C(=O)Nc1ccc(Cl)cc1` (centres undefined) [N1-(4-chlorophenyl)-N2-((1-ethylpyrrolidin-2-yl)methyl)oxalamide] gave an IC50 of 58.6 µM.
With `CC(CC(=O)Nc1ccc(Br)cc1)Nc1cccc(CO)c1` (centres undefined) [N-(4-bromophenyl)-3-(3-(hydroxymethyl)phenylamino)butanamide] the IC50 was greater than 100 µM.
Work on `CC1(C)CC(NC(=O)CC(=O)Nc2ccc(Br)cc2)CC(C)(C)N1` [N1-(4-bromophenyl)-N3-(2,2,6,6-tetramethylpiperidin-4-yl)malonamide] yielded an IC50 greater than 100 µM.
For `O=C(NCc1ccc2c(c1)OCO2)C(=O)Nc1ccc(Br)cc1` [N1-(benzo[d][1,3]dioxol-5-ylmethyl)-N2-(4-bromophenyl)oxalamide], the IC50 was greater than 100 µM.
For `C[C@@H]1CN(CCC(=O)Nc2ccc(Br)cc2)C[C@H](C)O1` [(2R,6S)-4-(3-(4-bromophenylamino)-3-oxopropyl)-2,6-dimethylmorpholin-4-ium], the IC50 was greater than 100 µM.
In the case of `CN1CCC(NC(=O)C(=O)Nc2ccc(Cl)c(F)c2)CC1` [N1-(4-chloro-3-fluorophenyl)-N2-(1-methylpiperidin-4-yl)oxalamide], the IC50 is reported as greater than 100 µM.
Work on `CN1CCN(C(CNC(=O)C(=O)Nc2ccc(Cl)c(F)c2)c2ccccc2Cl)CC1` (centres undefined) [N1-(4-chloro-3-fluorophenyl)-N2-(2-(2-chlorophenyl)-2-(4-methylpiperazin-1-yl)ethyl)oxalamide] yielded an IC50 of 73.6 µM.
With `CN1CCC(CNC(=O)C(=O)Nc2ccc(Cl)c(F)c2)(N(C)C)CC1` [N1-(4-chloro-3-fluorophenyl)-N2-((4-(dimethylamino)-1-methylpiperidin-4-yl)methyl)oxalamide] the IC50 was greater than 100 µM.
Work on `O=C(NCCc1cnc[nH]1)Nc1ccc(Cl)c(Cl)c1` [1-(2-(1H-imidazol-5-yl)ethyl)-3-(3,4-dichlorophenyl)urea] yielded an IC50 greater than 100 µM.
In the case of `CC1(C)CC(NC(=O)CCC(=O)Nc2ccc(Br)cc2)CC(C)(C)N1` [N1-(4-bromophenyl)-N4-(2,2,6,6-tetramethylpiperidin-4-yl)succinamide], the IC50 is reported as greater than 100 µM.
Work on `CC(NC(=O)C(=O)Nc1ccc(Cl)c(F)c1)c1ccc2c(c1)NC(=O)CO2` (centres undefined) [N1-(4-chloro-3-fluorophenyl)-N2-(1-(3-oxo-3,4-dihydro-2H-benzo[b][1,4]oxazin-6-yl)ethyl)oxalamide] yielded an IC50 greater than 100 µM.
Compound `CC1(C)CC(CNC(=O)C(=O)Nc2ccc(Cl)c(F)c2)CC(C)(C)N1` [N1-(4-chloro-3-fluorophenyl)-N2-((2,2,6,6-tetramethylpiperidin-4-yl)methyl)oxalamide] has an IC50 of 33 µM.
`O=C(Nc1ccc(Cl)cc1)Nc1ncnc2nc[nH]c12` [1-(4-chlorophenyl)-3-(9H-purin-6-yl)urea] showed an IC50 greater than 100 µM.
With `CCOC(=O)[C@H]1CCCN(CCC(=O)Nc2ccc(Br)cc2)C1` [(3S)-1-(3-(4-bromophenylamino)-3-oxopropyl)-3-(ethoxycarbonyl)piperidinium] the IC50 was greater than 100 µM.
Work on `CC1(C)C2CCC1(C)C(NC(=O)C(=O)Nc1ccc(Cl)c(F)c1)C2` (centres undefined) [N1-(4-chloro-3-fluorophenyl)-N2-(1,7,7-trimethylbicyclo[2.2.1]heptan-2-yl)oxalamide] yielded an IC50 greater than 100 µM.
Work on `COc1cc(NC(=O)C(=O)NC2CC(C)(C)NC(C)(C)C2)ccc1Cl` [N1-(4-chloro-3-methoxyphenyl)-N2-(2,2,6,6-tetramethylpiperidin-4-yl)oxalamide] yielded an IC50 greater than 100 µM.
`O=C(Nc1ccc(Br)cc1)C(=O)Nc1cccc2ccccc12` [N1-(4-bromophenyl)-N2-(naphthalen-1-yl)oxalamide] gave an IC50 greater than 100 µM.
With `O=C(Nc1ccnc(=O)[nH]1)c1sc2cc(Cl)ccc2c1Cl` [3,6-dichloro-N-(2-oxo-1,2-dihydropyrimidin-4-yl)benzo[b]thiophene-2-carboxamide] the IC50 was greater than 100 µM.
`Cc1cc(NC(=O)C(=O)c2c[nH]c3ccccc23)ccc1Br` [N-(4-bromo-3-methylphenyl)-2-(1H-indol-3-yl)-2-oxoacetamide] gave an IC50 greater than 100 µM.
Work on `CC1(C)CC(=NNC(=O)c2[nH]nc3c2CCCC3)CC(C)(C)N1` [2,2,6,6-tetramethyl-4-(2-(4,5,6,7-tetrahydro-1H-indazole-3-carbonyl)hydrazono)piperidinium] yielded an IC50 greater than 100 µM.
